How the values were obtained:
mice [1] = assay: Maximal electroshock (MES) seizure test; assay type: in vivo; details: for responders at 100 mg/kg / ED50: Mus musculus, ip; for responders at 100 mg/kg: read-out: MES: number of mice protected/number of mice tested (converted); for ED50: mice, pretreatment 0.5 h
Source text: (§1) Identification and profiling of new ASM candidate compounds are still largely based on predictive animal models of seizures/epilepsy, while a range of in silico and in vitro approaches (i.e., molecular modeling or high throughput screening, etc.) are increasingly used in the early stages of ASM discovery.[31] The Epilepsy Therapy Screening Program (ETSP) of the National Institute of Neurological Disorders and Stroke (NIH, Bethesda, MD) has enabled the discovery of several approved ASMs by focusing on the in vivo testing of compounds synthesized by both academic laboratories and industry.[32] The ETSP provides a broad panel of seizure tests (ca. 30 rodent models), but a subset of them is used for the initial screening of new compounds with potential antiseizure activity. The routinely used seizure models include: (i) the MES test, which is an experimental model of tonic–clonic seizures, (ii) the 6 Hz model (32 mA) of focal seizures, and (iii) the scPTZ model of generalized absence or myoclonic seizures.[33],[34] Consequently, in the current studies, all final compounds 21–36 and 45–48 were initially studied in the MES and the 6 Hz (32 mA) seizure models after intraperitoneal (i.p.) administration at a screening dose of 100 mg/kg in mice at a time point of 0.5 h (the screening group consisted of four mice, and the results obtained are summarized in Table S1).
(§2) These parameters were then used to calculate the protective indexes (PIs, PI = TD50/ED50), which describe the therapeutics window of potential drug candidates. The ED50, TD50, and PI values for the tested compounds together with data of their chemical prototypes KA-11 and KJ-5 and reference ASMs are summarized in Table 2.
(§3) The adult male Albino Swiss mice weighed between 22 and 26 g were used in the in vivo studies. They were housed under standardized housing conditions in colony cages and had free access to food as well as tap water. The animals were left to adapt under laboratory conditions for 7 days. All procedures involving animals and their care were performed in accordance with the current European Community and Polish legislation on animal experimentation.
(§4) In the initial screening studies, four mice per group were randomly assigned to each experimental group (each mouse was used only once). To evaluate the ED50 or TD50 values, four groups consisting of eight animals were injected with various doses of tested compounds. The protective indexes (PIs) for the compounds investigated and reference ASMs were calculated by dividing the TD50 value, as determined in the chimney test, by the respective ED50 value, as determined in the MES, scPTZ, or 6 Hz (32 or 44 mA) tests (PI = TD50/ED50). The PIs are a measure of the potential therapeutic window of the tested agent.
(§5) All substances were suspended in Tween 80 (1% aqueous solution) and administered i.p. as a single injection at a dose of 10 mL/kg. On each day of experimentation, fresh solutions were prepared. The detailed in vivo procedures are described elsewhere: the maximal electroshock seizure test (MES),[60] the subcutaneous pentylenetetrazole seizure test (scPTZ),[61] the 6 Hz psychomotor seizure model (32 and 44 mA),[62] and the chimney test.[63] The reference ASMs were purchased from commercial suppliers: VPA (Sigma-Aldrich, St. Louis, MO), LCS, and LEV (UCB Pharma, Braine l’Alleud, Belgium).

mice [2] = assay: 6 Hz (32 mA) psychomotor seizure model; assay type: in vivo; details: Mus musculus, ip; for responders at 100 mg/kg: 100 mg/kg i.p., 0.5 h; for ED50: mice, pretreatment 0.5 h
Source text: as §1, §2, §3, §4, §5

mice [3] = assay: Subcutaneous pentylenetetrazole (scPTZ) seizure test; assay type: in vivo; details: 100 mg/kg i.p.; for scPTZ: number of mice protected/number of mice tested: 0.5 h
Source text: as §2, §4, §5

5-HT2C (h) = 5-HT2C (h) (Homo sapiens, UniProt P28335); assay: 5-HT2C agonist effect functional assay; assay type: cell-based; details: HEK293, human recombinant HEK-293 cell, read-out: % inhibition of control agonist response (5-HT2C agonist effect)
5-HT2C (h), sequence (P28335 33-458): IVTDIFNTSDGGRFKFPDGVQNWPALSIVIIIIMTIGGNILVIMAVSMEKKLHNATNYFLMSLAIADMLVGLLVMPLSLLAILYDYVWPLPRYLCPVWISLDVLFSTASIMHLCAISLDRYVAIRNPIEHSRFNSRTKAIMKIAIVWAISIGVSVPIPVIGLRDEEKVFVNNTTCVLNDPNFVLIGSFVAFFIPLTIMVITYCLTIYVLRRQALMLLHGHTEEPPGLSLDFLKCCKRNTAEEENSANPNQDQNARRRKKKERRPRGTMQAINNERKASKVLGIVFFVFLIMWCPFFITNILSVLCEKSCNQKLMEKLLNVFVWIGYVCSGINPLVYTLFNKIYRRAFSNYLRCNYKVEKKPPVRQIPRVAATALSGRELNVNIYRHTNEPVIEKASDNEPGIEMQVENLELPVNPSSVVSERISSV
Protocol: Importantly, sodium or calcium conductance is often associated with the pathophysiology of epilepsy as well as neuropathic pain.[46]−[50] Therefore, both sodium and calcium ion channels are well-established molecular targets for structurally diverse ASMs such as LCS, lamotrigine, carbamazepine, oxcarbazepine, etc.[51] Consequently, we carried out binding and/or functional studies toward the sodium channel (site 2) and calcium Cav1.2 channel at high concentrations (100 μM) of 26 and 28 (Table 5). […] Next, 26 and 28 due to the presence of the phenylpiperazine moiety, which is a well-recognized pharmacophore for serotoninergic receptor (5-HTxR) ligands,[52] were evaluated for their influence on 5-HT2CR, where stimulation plays a key role for the antiseizure activity of lorcaserin (one of the newest ASMs).[6]
(§6) Binding/functional studies were carried out commercially in Eurofins Laboratories (Poitiers, France) and Eurofins Panlabs Discovery Services Taiwan, Ltd. (New Taipei City, Taiwan) using testing procedures that were reported previously (for details, see Table S2).
(§7) Table S2. Radioligand binding and functional assays. […]
5-HT2C (agonist effect)
(§8) Assays were performed commercially in Eurofins Laboratories ( Poitiers, France) or Eurofins Panlabs Discovery Services
(§9) Taiwan, Ltd. (New Taipei City, Taiwan).

TRPV1 (VR1) (h) = biological target: T1, TRPV1 (VR1) (h) (Homo sapiens, UniProt Q8NER1); assay: TRPV1 antagonist effect functional assay; assay type: cell-based; details: 10 μM, human recombinant CHO cells; read-out: % inhibition of control agonist response
T1 construct: Eurofins (contract assay)
T1 sequence (Q8NER1 whole entry): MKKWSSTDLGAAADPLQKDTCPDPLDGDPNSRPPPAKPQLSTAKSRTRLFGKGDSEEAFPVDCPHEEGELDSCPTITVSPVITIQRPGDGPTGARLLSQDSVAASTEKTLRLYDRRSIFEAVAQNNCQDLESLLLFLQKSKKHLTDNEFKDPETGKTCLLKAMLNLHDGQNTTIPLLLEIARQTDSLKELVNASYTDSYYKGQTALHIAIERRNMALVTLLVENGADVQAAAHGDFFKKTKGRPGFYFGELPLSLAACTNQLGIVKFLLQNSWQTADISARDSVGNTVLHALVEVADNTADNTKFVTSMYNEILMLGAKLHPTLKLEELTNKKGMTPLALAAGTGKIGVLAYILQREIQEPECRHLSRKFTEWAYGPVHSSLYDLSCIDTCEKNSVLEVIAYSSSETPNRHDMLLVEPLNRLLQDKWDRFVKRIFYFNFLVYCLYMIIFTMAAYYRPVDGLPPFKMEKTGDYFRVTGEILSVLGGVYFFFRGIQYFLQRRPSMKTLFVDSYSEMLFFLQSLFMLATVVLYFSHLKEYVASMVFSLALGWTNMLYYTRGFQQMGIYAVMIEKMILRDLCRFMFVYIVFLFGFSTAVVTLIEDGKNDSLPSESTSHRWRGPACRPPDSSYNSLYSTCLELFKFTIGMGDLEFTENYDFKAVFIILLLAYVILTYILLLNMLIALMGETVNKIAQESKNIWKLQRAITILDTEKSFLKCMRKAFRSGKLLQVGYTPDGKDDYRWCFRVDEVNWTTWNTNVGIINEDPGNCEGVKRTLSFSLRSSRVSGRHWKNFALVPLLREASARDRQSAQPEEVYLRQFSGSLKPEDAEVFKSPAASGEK
Protocol: For many years, the TRPV1 channel, permeable to calcium and sodium ions, has been recognized as a promising molecular target for novel analgesics.[19] […] Therefore, bearing in mind the involvement of TRPV1 in pain sensation and potentially in seizure induction, in the next step of the in vitro studies, the TRPV1 antagonist activity was determined for all compounds obtained (Table 6).
as §6, §7
TRPV1 (VR1) (h) (antagonist effect) […]
as §8, §9

[4] = PAMPA passive permeability; assay type: in vitro ADME; details: precoated PAMPA Plate System; for Papp: read-out: PAMPA—Pe ± SD
Source text: The precoated parallel artificial membrane permeability assay (PAMPA) was used to determine the passive mechanism of permeability.

[5] = HepG2 cell viability (hepatotoxicity); assay type: cell-based, human; details: human, HepG2 hepatoma cells; at 1.56 μM, 48 h; read-out: HepG2 viability (% of control ± SD)
Protocol: (§10) The in vitro safety tests were performed with the use of a hepatoma HepG2 cell line to estimate the hepatotoxic potential of the tested compounds.

HepG2 cell line = assay: HepG2 cell viability (hepatotoxicity); assay type: cell-based, human; details: for cell survival: HepG2, 100 μM; for concentration from which a statistically significant decrease of cell viability was observed: HepG2, 48 h
Protocol: as §10

HSA and AGP = assay: in vitro; details: human, plasma
[6] = four mice, read-out: protection in 6 Hz (32 mA) screening
[7] = read-out: 6 Hz (32 mA): number of mice protected/number of mice tested (converted)

inhibition at 10 µM (5-HT2C (h)) [%] | inhibition at 10 µM (TRPV1 (VR1) (h)) [%] | PAMPA—Pe ± SD [4] | Papp [4] [×10⁻⁶ cm/s] | fraction unbound (HSA and AGP) | Compound | antiseizure protection in MES screening (mice [1]; 100 mg/kg i.p., 0.5 h, four mice) [%] | responders at 100 mg/kg (mice [1]; 100 mg/kg i.p., 0.5 h) [%] | ED50 (mice [1]) [mg/kg] | responders at 100 mg/kg (mice [2]; [6]) [%] | responders at 100 mg/kg (mice [2]; [7]) [%] | ED50 (mice [2]) [mg/kg] | protection in scPTZ screening (mice [3]) [%] | scPTZ: number of mice protected/number of mice tested (mice [3]) | viability at 48 h, 1.56 µM [5] [%] | cell survival (HepG2 cell line) | concentration from which a statistically significant decrease of cell viability was observed (HepG2 cell line) [µM]
0.5 | -4.9 | 4.51 10^–6 cm/s | 4.51 ± 0.61 | 0.214 | CC(=O)NC(C)C(=O)N1CCN(c2cccc(C(F)(F)F)c2)CC1 (stereo not shown) [Compound 26, N-(1-oxo-1-(4-(3-(Trifluoromethyl)phenyl)piperazin-1-yl)propan-2-yl)acetamide] | 100 | 100 | 64.3 | 100 | 100 | 15.6 | 25 | 1/4 | 104 ± 8.8 | approximately 40% | 12.5
0.1 | 6.5 | 5.95 10^–6 cm/s | 5.95 ± 0.51 | 0.17 | CC(=O)NC(C)C(=O)N1CCN(c2cccc(OC(F)(F)F)c2)CC1 (stereo not shown) [Compound 28, N-(1-oxo-1-(4-(3-(Trifluoromethoxy)phenyl)piperazin-1-yl)propan-2-yl)acetamide] | – | 100 | 34.9 | 100 | 100 | 12.1 | 25 | 1/4 | 88.2 ± 16.1 | approximately 40% | 25

From article PMC11157491, “Novel Alaninamide Derivatives with Drug-like Potential for Development as Antiseizure and Antinociceptive Therapies—In Vitro and In Vivo Characterization” (ACS Chemical Neuroscience, 2024)
